Experimental data reported in patent US6465492B1, “Heterocyclic compounds” (Sinon Corporation, priority 2001, dated 2002).

System: aphids
Experiment: Biological test on aphid (spray on cabbage leaf in Petri dishes)
Assay type: in vivo
Details: for Number of dead aphids 1st: 1st Petri dish; for Number of dead aphids 1st / Number of dead aphids 2nd / Number of dead aphids 3rd / Number of dead aphids 4th: 20 aphids on cabbage leaf, 9.6% w/w pesticide reagent diluted 1000 times with water, sprayed, examined after 24 hours; for Number of dead aphids 2nd: 2nd Petri dish; for Number of dead aphids 3rd: 3rd Petri dish; for Number of dead aphids 4th: 4th Petri dish; for Number of dead aphids average: average of four Petri dishes
Experimental: 9.6 g of the compound (based on the active ingredient) obtained from Example 1 was blended with 90.4 g of a solvent to form a 9.6% w/w pesticide reagent An 8 cm×8 cm piece of cabbage leaf was placed on a lump of wetted cotton in each one of four Petri dishes. 20 aphids were subsequently put on the cabbage leaf in each one of the Petri dishes. The thus formed pesticide reagent was diluted 1000 times with water to form a diluted solution which was then sprayed onto the cabbage leaf in each one of the Petri dishes in a predetermined amount. The number of dead aphids in each one of the Petri dishes was examined after 24 hours.
Example 13 was repeated, except that the compound employed in Example 13 was replaced by the compound obtained from a respective one of the Examples 2 to 12.
Example 13 was repeated, except that the compound employed in Example 13 was replaced by imidachloprid which is a heterocyclic compound of the formula disclosed in U.S. Pat. No. 4,742,060.
Table 2 lists the effectiveness of the pesticide reagents prepared in Examples 13 to 24 and the Comparative Example 1.

[1] = 20 aphids each, 9.6% w/w reagent diluted 1000 times, after 24 hours

Structure (SMILES) | Number of dead aphids 1st | Number of dead aphids 2nd | Number of dead aphids 3rd | Number of dead aphids 4th | Number of dead aphids average [1] | Effectiveness (higher value indicates greater effectivity, four Petri dishes, 20 aphids each, 9.6% w/w reagent diluted 1000 times, after 24 hours)
Cc1ccc(S(=O)(=O)N=C2NCCCN2Cc2ccc(Cl)nc2)cc1 [Example 14, 3-(2-chloro-5-pyridylmethyl)-2-[(4-methylphenyl)sulfonylimino]tetrahydropyrimidine] | 16 | 17 | 17 | 16 | 16.5 | –
CS(=O)(=O)N=C1NCCCN1Cc1ccc(Cl)nc1 [Example 16, 3-(2-chloro-5-pyridylmethyl)-2-[methylsulfonylimino]tetrahydropyrimidine] | 17 | 17 | 19 | 19 | 18 | –
Cc1ccc(S(=O)(=O)N=C2OCCN2Cc2ccc(Cl)nc2)cc1 [Example 20, 3-(2-chloro-5-pyridylmethyl)-2-[(4-methylphenyl)sulfonylimino]oxazolidine] | 17 | 16 | 18 | 15 | 16.5 | –
CS(=O)(=O)/N=C1\OCCN1Cc1ccc(Cl)nc1 [Example 22, 3-(2-chloro-5-pyridylmethyl)-2-[methylsulfonylimino]oxazolidine] | 18 | 16 | 19 | 17 | 17.5 | –
O=[N+]([O-])/N=C1\NCCN1Cc1ccc(Cl)nc1 [Comparative Example 1, imidachloprid, reference compound] | 18 | 17 | 18 | 16 | 17.25 | 86.08
O=S(=O)(N=C1NCCN1Cc1ccc(Cl)nc1)c1ccc(Cl)cc1 [Example 17, 3-(2-chloro-5-pyridylmethyl)-2-[(4-chlorophenyl)sulfonylimino]imidazolidine] | 20 | 18 | 19 | 20 | 19.25 | –
Cc1ccc(S(=O)(=O)N=C2SCCN2Cc2ccc(Cl)nc2)cc1 [Example 19, 3-(2-chloro-5-pyridylmethyl)-2-[(4-methylphenyl)sulfonylimino]thiazolidine] | 17 | 16 | 18 | 17 | 17 | –
CS(=O)(=O)/N=C1\SCCN1Cc1ccc(Cl)nc1 [Example 21, 3-(2-chloro-5-pyridylmethyl)-2-[methylsulfonylimino]thiazolidine] | 16 | 18 | 19 | 18 | 17.75 | –
O=S(=O)(N=C1NCCCN1Cc1ccc(Cl)nc1)c1ccc(Cl)cc1 [Example 18, 3-(2-chloro-5-pyridylmethyl)-2-[(4-chlorophenyl)sulfonylimino]tetrahydropyrimidine] | 19 | 19 | 19 | 17 | 18.5 | –
CS(=O)(=O)/N=C1\NCCN1Cc1ccc(Cl)nc1 [Example 15, 3-(2-chloro-5-pyridylmethyl)-2-[methylsulfonylimino] imidazolidine] | 16 | 18 | 19 | 19 | 18 | –
Cc1ccc(S(=O)(=O)N=C2NCCN2Cc2ccc(Cl)nc2)cc1 [Example 13, 3-(2-chloro-5-pyridylmethyl)-2-[(4-methylphenyl)sulfonylimino]imidazolidine] | 15 | 18 | 16 | 17 | 16.5 | –
O=S(=O)(N=C1OCCN1Cc1ccc(Cl)nc1)c1ccc(Cl)cc1 [Example 24, 3-(2-chloro-5-pyridylmethyl)-2-[(4-chlorophenyl)sulfonylimino]oxazolidine] | 15 | 18 | 19 | 19 | 17.75 | –
O=S(=O)(N=C1SCCN1Cc1ccc(Cl)nc1)c1ccc(Cl)cc1 [Example 23, 3-(2-chloro-5-pyridylmethyl)-2-[(4-chlorophenyl)sulfonylimino]thiazolidine] | 18 | 18 | 16 | 18 | 17.5 | –
